{"source": "paper PMC6874683", "about": "“Pyrrothiogatain acts as an inhibitor of GATA family proteins and inhibits Th2 cell differentiation in vitro” (Scientific Reports, 2019)", "key": {"Th2 cell differentiation": {"system": "Th2 cell differentiation", "assay": "Intracellular cytokine staining, total CD4+ T cells under IL-2 conditions", "type": "cell-based, mouse", "conditions": "30 µM, five days", "method": "C57BL/6 mice were purchased from Clea (Clea Japan, Inc., Tokyo, Japan). Total CD4^+ T cells isolated from mouse spleen were prepared using a FITC anti-mouse CD4 antibody (Cat#100510, RM4–5, BioLegend) and anti-FITC-microbeads (Cat#130-097-050, Miltenyi Biotec). Naive CD4^+ T cells (CD44^low, CD62L^high) were prepared using a MojoSort Mouse CD4 T cell Isolation Kit (Cat#480033), BioLegend). Biotinylated anti-CD44 (Cat#103004, IM7) and anti-CD25 antibodies (Cat#102004, PC61) were purchased from BioLegend. CD4^+ T cells (7.5 × 10^5) were stimulated using immobilized anti-TCR-β mAb (3 µg/mL, H57–597, BioLegend) plus an anti-CD28 mAb (1.0 µg/mL, cat#40–0281, TONBO Biosciences) for 2 days, and then, the cells were further expanded under similar conditions for an additional 3 days. IL-2 conditions: IL-2 (10 ng/mL, Pepro Tech); Th2 conditions: IL-2 (10 ng/mL, Pepro Tech), IL-4 (1 ng/mL, Pepro Tech), and anti-IFN-γ mAb (2.5 µg/mL, cat#40–731, TONBO Biosciences). […]\nThe in vitro differentiated CD4^+ T cells were stimulated using an immobilized anti-TCR-β mAb (3 µg/ml, H57–597, BioLegend) for 6 h in the presence of monensin (2 µM). […] Flow cytometry was performed using a Gallios Flow Cytometer instrument (Beckman Coulter) and a FACS Caliber instrument (BD Biosciences) and the results were analysed using the FlowJo software program (Tree Star, Ashland, OR, USA). […]"}, "GATA4": {"molecular_target": "T1, GATA4 (Homo sapiens, UniProt P43694)", "T1 construct": "we tried to synthesize their full-length proteins using the cell-free system; made in house; host or cells: wheat cell-free protein synthesis system (WEPRO1240 kit)", "T1 sequence (P43694 whole entry, species assumed)": "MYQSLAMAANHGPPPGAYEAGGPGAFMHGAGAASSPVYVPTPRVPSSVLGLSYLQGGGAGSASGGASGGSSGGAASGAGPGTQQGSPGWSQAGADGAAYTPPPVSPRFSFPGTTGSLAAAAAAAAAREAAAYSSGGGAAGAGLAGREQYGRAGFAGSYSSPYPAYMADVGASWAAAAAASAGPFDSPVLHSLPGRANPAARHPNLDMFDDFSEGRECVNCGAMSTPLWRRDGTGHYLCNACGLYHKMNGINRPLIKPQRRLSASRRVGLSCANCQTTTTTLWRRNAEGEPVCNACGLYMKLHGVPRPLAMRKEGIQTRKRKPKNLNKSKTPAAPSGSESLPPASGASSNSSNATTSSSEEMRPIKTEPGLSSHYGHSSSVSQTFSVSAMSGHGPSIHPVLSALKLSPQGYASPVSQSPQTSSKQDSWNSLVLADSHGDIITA", "assay": "AlphaScreen DNA-binding assay, GATA4", "conditions": "pyrrothiogatain 0 to 200 µM", "method": "For the protein-DNA binding assay on a 384-well AlphaPlate (Perkin Elmer), 10 μL of bait protein mixture containing 1 µL FLAG-tagged protein in AlphaScreen Buffer (100 mM Tris-HCl (pH 8.0), 150 mM NaCl, 0.1% Tween 20, and 1 mg/mL BSA) and 5 µL biotinylated oligonucleotide (0–10 µM final concentration) in AlphaScreen Buffer were dispended into the AlphaPlate. Then, the plate was incubated at 26 °C for 1 h. After incubation, 10 μL of the detection mixture containing 0.4 µg/mL Anti-DYKDDDDK antibody (1E6, Wako), 0.1 μL streptavidin-conjugated AlphaScreen donor beads, and 0.1 μL protein A-conjugated AlphaScreen acceptor beads in AlphaScreen Buffer was mixed and incubated at 26 °C for 1 h, and then, the AlphaScreen signal was detected using an EnVision device with the AlphaScreen signal detection program (PerkinElmer).\nFor the AlphaScreen-based chemical library screening, we used a diverse set of 9,600 synthesized chemicals established by the Drug Discovery Initiative (The University of Tokyo, Tokyo, Japan). All chemical compounds (10 mM) were dissolved in DMSO, and were pre-dispensed into a 384-well Alphaplate (250 nL/well). […] The AlphaScreen signal was detected using an EnVision device with the AlphaScreen signal detection program (PerkinElmer). […]"}}, "note": "Several values for one entry are separate records, joined by “and”; a condition that tells them apart may be missing. Equal values may be shown once.", "data": [{"smiles": "Cc1ccc(C)n1-c1ccsc1C(=O)O", "note": "[Pyrrothiogatain, 3-(2,5-dimethyl-1H-pyrrol-1-yl)thiophene-2-carboxylic acid]", "values": [{"measurement": "Generation of IL-4-, IL-5-, and IL-13-producing cells", "setting": "Th2 cell differentiation", "result": "repressed"}, {"measurement": "Number of Th1 cells producing IFN-γ", "setting": "Th2 cell differentiation", "result": "increased"}, {"measurement": "IC50", "setting": "GATA4", "result": "~50 µM and 48 µM"}]}]}
